Like-named read-outs stand apart in the source and are kept apart here.
Assays:
Vitis vinifera L. = format: in vivo
Protocol: Matured branches of “V. vinifera L.” grown outdoors were collected on December 25 during the dormant stage and were prepared to have one bud, and then, each cutting base was immersed in a 0.01, 0.1 or 1% aqueous solution of D-psicose for 24 hours. On the following day December 26, the same procedure as in 1 was carried out. In a control plot, distilled water was used, and to the liquid for treatment, Approach BI was not added. The judgment of bud flush was carried out in accordance with the method in 1. The measurement of bud flush was carried out on about a weekly basis.
In the survey of the bud flush rate, 9 cuttings were used for each plot and the procedure was repeated twice and an average was obtained.

[1] = tested on: rice plant (variety: Nihonbare); assay: Growth of rice seedlings in hydroponic culture with D-psicose; format: in vivo
[2] = tested on: PBZ1, chitinase gene (PCG3), PAL gene; assay: Northern blot of genes related to resistance in rice after D-psicose treatment; format: in vivo
Protocol: A seedling of a rice plant (variety: Nihonbare, see FIG. 10, the middle of the photograph, the white bar: 5 mm) at day 5 after sowing was used for an experiment. The rice seedling was raised by hydroponic culture in a pot using Kimura B solution. The Kimura B solution was supplemented with D-psicose at each concentration. While the solution was replaced with the same solution every 5 days, cultivation was carried out for 10 days. Thereafter, the seedling was transplanted to a pot filled with soil, and then, cultivation was carried out with natural light in a glass chamber for 7 days. Then, total RNA was extracted and a Northern blot analysis was carried out.

[3] = tested on: Fusarium oxysporum (IFO 31213 strain); format: in vivo, tomato plant (variety: “House Momotaro”)
Protocol: By using a tomato plant and a strain of Fusarium oxysporum, which is a typical pathogenic bacterium of tomato, an effect of D-psicose during infection in a stage of raising seedlings thereof was examined.
To be more specific, seeds of a tomato plant (variety: “House Momotaro”) were subjected to an immersion treatment by immersing them in a 0.01% (w/v) D-psicose solution or a 0.007% (w/v) probenazole solution for 15 minutes while stirring slowly, followed by air-drying on sterile gauze, and then used as treated seeds. In the medium culture for raising seedlings (pete:pearlite:vermiculite=2:1:1), 0.01% (w/v) D-psicose or 0.007% (w/v) probenazole was mixed, and the soil was placed in black polypot plant containers with a diameter of 9 cm, and then, 4 seeds of the above treated seeds were sown in each pot. The seeds (20 seeds in total) were sown in 5 pots for each test plot. After sowing, the pots were placed in a growth chamber at 23° C. and 5,000 Lux (12-hour day length), and raising of seedlings was initiated. At 1 month and 2 months after the initiation of raising of seedlings, a suspension of mycelium of Fusarium oxysporum (IFO 31213 strain) was inoculated around the roots, whereby infection with Fusarium oxysporum was caused. After the inoculation of Fusarium oxysporum, the temperature was raised to 30° C., and cultivation was continued. At about 4 months after sowing, a survey was carried out with regard to the survival rate of plants, the conditions of browning of vascular bundles and roots, the stem diameter and the like.

[4] = tested on: eggplant plant (variety: “Senryo NiGo”); assay: Spraying of sugar solution during eggplant cultivation; format: in vivo; settings: 0.2% (w/v) sprayed weekly
Protocol: In the process of cultivation of eggplant, an effect of spraying D-psicose was examined.
An eggplant plant (variety: “Senryo NiGo”) was used in an experiment. Eggplant seedlings were transplanted for permanent planting to No. 7 unglazed pots filled with “Hana to Yasai no Tsuchi (garden soil for flowers and vegetables)” and a cultivation test was carried out in a vinyl house equipped with a heating device. As a fertilizer, 4 granules of IB compound fertilizer per pot were given around the roots, and irrigation was carried out by automatically feeding 500 ml of water twice a day. During the cultivation, on a weekly basis, water, a 0.2% (w/v) D-glucose solution or a 0.2 (w/v) D-psicose solution was sprayed onto the whole plant. As for the number of eggplant plants, 10 plants were used for each group, and the cultivation was carried out twice, i.e., in summer (from May 14 to Jul. 15, 2004) and in winter (from Nov. 4, 2004 to Feb. 24, 2005). A survey was carried out with regard to the growth conditions during the cultivation and yield of fruits.

[5] = tested on: tomato plant (variety: “Momotaro”); assay: Spraying of sugar solution during tomato cultivation; format: in vivo; settings: 0.2% (w/v) sprayed weekly
Protocol: In the process of cultivation of tomato, an effect of spraying D-psicose was examined.
A tomato plant (variety: “Momotaro”) was used in an experiment. Tomato seedlings were transplanted for permanent planting to No. 7 unglazed pots filled with “Hana to Yasai no Tsuchi (garden soil for flowers and vegetables)” and a cultivation test was carried out in a vinyl house equipped with a heating device. As a fertilizer, 4 granules of IB compound fertilizer per pot were given around the roots, and irrigation was carried out by automatically feeding 500 ml of water twice a day. During the cultivation, on a weekly basis, water, a 0.2% (w/v) D-glucose solution or a 0.2% (w/v) D-psicose solution was sprayed onto the whole plant. As for the number of tomato plants, 10 plants were used for each group, and the cultivation was carried out twice, i.e., in summer (from April 20 to Aug. 9, 2004) and in winter (from Nov. 4, 2004 to Mar. 14, 2005). A survey was carried out with regard to the growth conditions during the cultivation and yield of fruits.

[6] = 0.5 mM, hydroponic culture for 10 days
[7] = 0.5 mM for 10 days, 1 week after transplanting

In the case of `O=C(CO)[C@H](O)[C@H](O)[C@H](O)CO` [D-psicose], the bud flush rate (Vitis vinifera L.; 0.01%) is reported as “a similar pattern to that of the control plot”, the bud flush rate (Vitis vinifera L.; 0.1%, throughout the whole period) is reported as “the lowest value” and the bud flush rate (Vitis vinifera L.; 1%, after the mid-February) is reported as “the highest value”. For the same compound, the “bud flush rate compared with control plot” value (Vitis vinifera L.; all plots (0.01, 0.1, 1%), until early February) was “lower”, the “state of green branches of grapes in summer after treatment” value (Vitis vinifera L.; in vivo) was “withered and dead” and the Number of roots ([1]; 0.5 mM) was “no change”. It also gave a Number of roots ([1]; 0.5 mM D-psicose, Day 10 after germination, non-treated 7.00 ± 0.6) of 7.00 ± 0.6 roots, a Seed root length ([1]; 0.5 mM D-psicose, Day 10 after germination, non-treated 7.58 ± 0.23) of 5.15 ± 0.26 cm and a Plant length ([1]; 0.5 mM D-psicose, Day 10 after germination, non-treated 12.08 ± 0.21) of 5.29 ± 0.58 cm. For the same compound, the “root length inhibited by” value [1, 6] was 67%, the “seedling length inhibited by” value [1, 6] was 43% and the “Plant length, percentage of the relative value to untreated plot” value ([1]; 7 days (1 week) after transplantation to pot, after 0.5 mM D-psicose) was 52.4%. It also gave a Plant length ([1]; 7 days after transplantation to pot, after 0.5 mM D-psicose treatment, untreated 31.4 ± 0.5) of 16.5 ± 2.4 cm, a Plant length ([1]; 14 days after transplantation to pot, after 0.5 mM D-psicose treatment, untreated 44.7 ± 0.1) of 35.3 ± 2.1 cm and an inhibition at 100 µM ([1]; Oryza sativa, 0.1 mM) of 30%. For the same compound, the “time to recover to the size equal to that of the untreated plot after transplanting to soil” value ([1]; after 0.5 mM treatment, raised without D-psicose) was “about 3 weeks”, the “growth relative to the untreated plot” value ([1]; until 0.05 mM (0.005 to 0.05 mM)) was greater than 98% and the “expression of genes related to rice disease resistance in leaves” value ([2]; 0.5 mM 10 days, then one week in soil without D-psicose) was “induction”. The “induction of PBZ1” value [2, 7] was “strongly observed”, the “induction of chitinase gene (PCG3)” value [2, 7] was “strongly observed” and the “effect on PAL gene” value ([2]; constantly expressed gene) was “no effect”. The “expression of PBZ1 and chitinase gene (PCG3)” value ([2]; treated plots of from 0.0005 to 0.1 mM) was “not expressed”, the “degree of chemical damage (yellow discoloration of leaves)” value ([3]; in vivo) was “smaller than that of the case of probenazole” and the “Vascular bundle browning ratio” value ([3]; seed immersion (0.01% D-psicose or 0.007% probenazole), no seed treatment 25%) was 5%. The Stem diameter ([3]; seed immersion treatment) was “increased”, the “inhibitory effect on Fusarium wilt” value ([3]; seed immersion with D-psicose solution) was “equal to or more than that of probenazole” and the “significant effect of spraying on cultivation” value ([4]; summer) was “not observed”. The “growth (aerial part weight and underground part weight)” value ([4]; winter) was “promotion of the growth”, the yield of fruits ([4]; winter) was “increase” and the “significant effect of spraying on cultivation” value ([5]; summer) was “not observed”. For the same compound, the number of fruits ([5]; winter) was “increase” and the yield of fruits ([5]; winter) was “increase”.

— US8017828B2, “Utilization of rare sugars in plant or microorganism” (Shikoku Research Institute Incorporated, priority 2004, dated 2011)
